Test results as given in patent publication US20100311674A1, “PHARMACEUTICAL COMPOSITIONS WITH A MECHANISM OF MULTI-TARGET RECEPTOR RETROACTION FOR TREATING DEPRESSION” (Yu-Fen Chi, priority 2007, published 2010).

How the values were obtained:
[1] = system: unpredictable long-term stimulus model; experiment: Open field activity experiment, unpredictable long-term stimulus model (Experiment 8); type: in vivo, rat; conditions: 2 mg/kg/d into the stomach, 24 days; within 3 minutes
Text: 7.5.1 Open field activity experiment: The open field activity box (1 m×1 m×0.4 m) is constructed by the light blue plywood and the aluminum alloy frame. The box bottom is separated into 25 grids (20 cm×20 cm for each grid), the circumference is the peripheral grids (16 grids), and others are the central grids (9 grids). The rat is placed in the center of the central grids, and the rat's cross-grid number (the number of crossing into the neighboring gird more than 3 claws) and rat's standing number (two forelimbs leaving the ground for more than 1 cm) are calculated/observed within 3 minutes.
Unpredictable long-term stimulus model: Health Wistar male rats, secondary, 240˜270 g of body weight, are purchased from Beijing Vital River Experimental Animal Technology Ltd. Co. (The quality certificate number: SOCK (JING) 2002-2003).
The above pharmaceuticals are prepared with 0.5% of sodium carboxymethylcellulose (CMC-Na) for feeding into the stomach. Benzylpenicillin sodium for injection is the product of North China Pharmaceutical Huasheng Co. Ltd. (Lot: S0511204), and norepinephrine (NE) and 5-hydrotryptamine (5-HT) standards are the products of Sigma Co. Other reagents are all marketed. […]
8.6 Statistic calculation: The experimental data are represented as […], and the experimental result is calculated as ANOVA by SPSS 11.5 statistic software.

ICR mice [2] = experiment: Resetpine-induced mouse body temperature decrease experiment (Experiment 2); type: in vivo
Text: 2.1 Experimental animals: ICR mice, male, 22.0±2 g of body weight, secondary, are provided by the Experimental Animal Science Department of Capital Medical University, Beijing.
2.2 Experiment pharmaceuticals: The pharmaceutical of Embodiment 1 is provided by Beijing Wonner Biotech. Ltd. Co., Paroxetine (Paxil) is the product of Thong Mei Tianjin Smith Kline pharmaceuticals Co. Ltd., and Resetpine is the product of Guangdong BangMin Pharmaceutical Co., Ltd.
2.4 Dose designs: 1. High dose of Embodiment 1 (80 mg/kg/d); 2. middle dose of Embodiment 1 (40 mg/kg/d); and 3. low dose of Embodiment 1 (20 mg/kg/d).
2.5.1 Group division and administration of drug: The mice are grouped randomly, and 10 mice are in each group. 1. High dose of Embodiment 1 (80 mg/kg, P.O., administered for 7 days); 2. middle dose of Embodiment 1 (40 mg/kg, P.O., administered for 7 days); 3. low dose of Embodiment 1 (20 mg/kg, P.O., administered for 7 days); 4.
2.5.2 Experimental method: After 1 hour of the last administration of drug on the eighth day, the mouse's anal temperature is determined. […] After 4 hours of injecting Resetpine, the mouse's anal temperature is determined once again. […]
2.5.3 Statistic calculation: The experimental data are represented as X±SD, and the experimental result is calculated as ANOVA by SPSS 11.5 statistic software.

ICR mice [3] = experiment: Mouse tail-hanging experiment (Experiment 5); type: in vivo
Procedure: 5.1 Experimental animals: ICR mice, male, 22.0±2 g of body weight, secondary, are provided by the Experimental Animal Science Department of Capital Medical University, Beijing. 5.2 Experiment pharmaceuticals: The pharmaceutical of Embodiment 3 is provided by Beijing Wonner Biotech. […] High dose of Embodiment 3 (80 mg/kg/d); 2. middle dose of Embodiment 3 (40 mg/kg/d); and 3. low dose of Embodiment 3 (20 mg/kg/d). 5.5.1 Group division and administration of drug: The mice are grouped randomly, and 10 mice are in each group. 1. High dose of Embodiment 3 (80 mg/kg, P.O., administered for 7 days); 2. middle dose of Embodiment 3 (40 mg/kg, P.O., administered for 7 days); 3. low dose of Embodiment 3 (20 mg/kg, P.O., administered for 7 days); 4. […] After 1 hour of the last administration of drug, the mouse tail-hanging experiment is proceeded. 5.5.2 Experimental method: The mouse's tail (1 cm to the tail end) is taped on the wood strip higher than the platform for 5 cm and hung up for 6 minutes. The time of non-movement of the mouse for the last 5 minutes is recorded. 5.5.3 Statistic calculation: The experimental data are represented as X+SD, and the experimental result is calculated as ANOVA by SPSS 11.5 statistic software.

Compound: Fc1ccc([C@@H]2CCNC[C@H]2COc2ccc3c(c2)OCO3)cc1 [Paroxetine]
- Horizontal movement (cross-grid number) [1]: 61.85 ± 21.68
- Vertical movement (standing number) [1]: 14.69 ± 4.2
- Decreased temperature (ICR mice [2]; 3 mg/kg P.O. 7 days, 4 h after Resetpine 2 mg/kg i.p.): 2.38 ± 0.69 °C
- Effect on reduced body temperature induced by Resetpine (in words) (ICR mice [2]; high, middle and low doses of Embodiment 1, Paroxetine): decrease the reduced body temperature induced by Resetpine
- Time of non-movement (ICR mice [3]; 3 mg/kg P.O. 7 days, 1 h after last dose, last 5 of 6 min): 75.33 ± 22.91 s
- Effect on time of non-movement after the mouse's tail is hung up (in words) (ICR mice [3]; high and middle doses of Embodiment 3, Paroxetine, significantly different from control): decrease the time of non-movement
